According to PMC11864979, “First-in-class ultralong-target-residence-time p38α inhibitors as a mitosis-targeted therapy for colorectal cancer” (Nature Cancer, 2025):
Where two headings read alike, the source gives them in different places.

Legend:
Assay in all cases: selectivity profiling in a panel of 340 wild-type kinases (Reaction Biology Europe)
Format in all cases: binding
340 wild-type kinases [1] = target: T1, 340 wild-type kinases (Homo sapiens, UniProt Q9UPE1)
T1 construct: purchased Reaction Biology Europe
T1 sequence (Q9UPE1 whole entry): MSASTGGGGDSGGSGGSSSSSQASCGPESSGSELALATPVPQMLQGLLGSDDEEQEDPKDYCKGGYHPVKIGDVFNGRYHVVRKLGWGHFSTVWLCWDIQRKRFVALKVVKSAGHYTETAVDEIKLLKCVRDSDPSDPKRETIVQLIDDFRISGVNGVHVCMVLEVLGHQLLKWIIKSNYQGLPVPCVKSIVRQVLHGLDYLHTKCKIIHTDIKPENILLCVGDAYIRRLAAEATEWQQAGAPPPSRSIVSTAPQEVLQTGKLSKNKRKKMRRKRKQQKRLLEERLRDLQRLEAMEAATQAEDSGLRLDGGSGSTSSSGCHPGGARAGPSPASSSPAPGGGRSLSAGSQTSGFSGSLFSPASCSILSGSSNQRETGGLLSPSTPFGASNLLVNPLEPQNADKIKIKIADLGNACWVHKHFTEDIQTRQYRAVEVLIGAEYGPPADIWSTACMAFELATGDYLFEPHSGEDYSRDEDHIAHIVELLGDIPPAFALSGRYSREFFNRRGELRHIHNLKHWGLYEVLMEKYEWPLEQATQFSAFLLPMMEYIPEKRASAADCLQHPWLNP

340 wild-type kinases [2] = target: T2, 340 wild-type kinases (Homo sapiens, UniProt P00519)
T2 construct: purchased Reaction Biology Europe

340 wild-type kinases [3] = target: T3, 340 wild-type kinases (Homo sapiens, UniProt Q9NQU5)
T3 construct: purchased Reaction Biology Europe
T3 sequence (Q9NQU5 whole entry): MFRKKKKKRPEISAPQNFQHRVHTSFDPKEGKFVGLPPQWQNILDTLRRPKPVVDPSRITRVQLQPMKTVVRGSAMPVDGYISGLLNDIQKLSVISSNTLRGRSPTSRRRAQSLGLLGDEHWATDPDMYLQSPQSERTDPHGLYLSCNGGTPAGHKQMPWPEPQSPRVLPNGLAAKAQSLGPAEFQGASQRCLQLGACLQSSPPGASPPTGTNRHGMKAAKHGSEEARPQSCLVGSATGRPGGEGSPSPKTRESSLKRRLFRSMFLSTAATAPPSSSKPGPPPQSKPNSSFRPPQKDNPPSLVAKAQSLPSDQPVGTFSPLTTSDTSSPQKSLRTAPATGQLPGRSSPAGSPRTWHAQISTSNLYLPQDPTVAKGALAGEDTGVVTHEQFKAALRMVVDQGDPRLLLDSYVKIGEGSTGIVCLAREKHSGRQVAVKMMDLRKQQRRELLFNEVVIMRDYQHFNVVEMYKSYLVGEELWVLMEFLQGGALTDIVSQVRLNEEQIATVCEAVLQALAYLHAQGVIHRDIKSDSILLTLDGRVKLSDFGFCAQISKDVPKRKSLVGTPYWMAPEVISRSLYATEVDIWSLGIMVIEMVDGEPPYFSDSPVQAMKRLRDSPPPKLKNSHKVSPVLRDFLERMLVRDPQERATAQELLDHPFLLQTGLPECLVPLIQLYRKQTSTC

340 wild-type kinases [4] = target: T4, 340 wild-type kinases (Homo sapiens, UniProt Q9H422)
T4 construct: purchased Reaction Biology Europe

340 wild-type kinases [5] = target: T5, 340 wild-type kinases (Homo sapiens, UniProt Q6IQ55)
T5 construct: purchased Reaction Biology Europe
T5 sequence (Q6IQ55 whole entry): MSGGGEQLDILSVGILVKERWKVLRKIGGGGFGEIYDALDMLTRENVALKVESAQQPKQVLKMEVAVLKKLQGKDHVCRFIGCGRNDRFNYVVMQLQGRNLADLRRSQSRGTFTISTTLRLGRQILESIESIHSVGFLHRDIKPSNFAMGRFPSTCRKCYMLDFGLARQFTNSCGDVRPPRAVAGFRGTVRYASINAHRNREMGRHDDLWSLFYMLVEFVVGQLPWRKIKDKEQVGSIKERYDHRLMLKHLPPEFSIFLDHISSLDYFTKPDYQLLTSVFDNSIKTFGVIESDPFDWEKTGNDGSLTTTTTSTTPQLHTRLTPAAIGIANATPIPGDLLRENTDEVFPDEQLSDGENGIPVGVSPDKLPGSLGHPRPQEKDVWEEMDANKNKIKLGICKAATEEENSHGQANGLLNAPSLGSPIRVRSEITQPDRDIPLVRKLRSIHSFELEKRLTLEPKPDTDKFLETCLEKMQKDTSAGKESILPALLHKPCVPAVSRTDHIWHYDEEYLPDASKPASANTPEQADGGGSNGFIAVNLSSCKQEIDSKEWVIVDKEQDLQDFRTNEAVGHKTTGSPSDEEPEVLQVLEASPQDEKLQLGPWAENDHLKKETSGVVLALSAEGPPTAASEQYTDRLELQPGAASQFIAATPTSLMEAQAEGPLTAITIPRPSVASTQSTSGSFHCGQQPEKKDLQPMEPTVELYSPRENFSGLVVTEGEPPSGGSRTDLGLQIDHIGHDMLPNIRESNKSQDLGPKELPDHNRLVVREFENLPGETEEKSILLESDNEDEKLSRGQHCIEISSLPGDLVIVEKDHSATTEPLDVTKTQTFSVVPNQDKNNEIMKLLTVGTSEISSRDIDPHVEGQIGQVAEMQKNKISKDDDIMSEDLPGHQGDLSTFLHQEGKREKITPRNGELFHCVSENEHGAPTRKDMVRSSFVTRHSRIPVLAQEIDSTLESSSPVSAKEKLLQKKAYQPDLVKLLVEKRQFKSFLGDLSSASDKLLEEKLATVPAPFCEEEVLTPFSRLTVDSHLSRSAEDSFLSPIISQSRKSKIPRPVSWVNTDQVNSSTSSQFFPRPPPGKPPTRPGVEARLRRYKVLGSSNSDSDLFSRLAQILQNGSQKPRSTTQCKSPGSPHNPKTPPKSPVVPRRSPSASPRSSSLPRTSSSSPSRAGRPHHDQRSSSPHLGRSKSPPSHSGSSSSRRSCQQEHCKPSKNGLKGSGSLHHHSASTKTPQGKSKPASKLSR

340 wild-type kinases [6] = target: T6, 340 wild-type kinases (Homo sapiens, UniProt Q13233)
T6 construct: purchased Reaction Biology Europe
T6 sequence (Q13233 whole entry): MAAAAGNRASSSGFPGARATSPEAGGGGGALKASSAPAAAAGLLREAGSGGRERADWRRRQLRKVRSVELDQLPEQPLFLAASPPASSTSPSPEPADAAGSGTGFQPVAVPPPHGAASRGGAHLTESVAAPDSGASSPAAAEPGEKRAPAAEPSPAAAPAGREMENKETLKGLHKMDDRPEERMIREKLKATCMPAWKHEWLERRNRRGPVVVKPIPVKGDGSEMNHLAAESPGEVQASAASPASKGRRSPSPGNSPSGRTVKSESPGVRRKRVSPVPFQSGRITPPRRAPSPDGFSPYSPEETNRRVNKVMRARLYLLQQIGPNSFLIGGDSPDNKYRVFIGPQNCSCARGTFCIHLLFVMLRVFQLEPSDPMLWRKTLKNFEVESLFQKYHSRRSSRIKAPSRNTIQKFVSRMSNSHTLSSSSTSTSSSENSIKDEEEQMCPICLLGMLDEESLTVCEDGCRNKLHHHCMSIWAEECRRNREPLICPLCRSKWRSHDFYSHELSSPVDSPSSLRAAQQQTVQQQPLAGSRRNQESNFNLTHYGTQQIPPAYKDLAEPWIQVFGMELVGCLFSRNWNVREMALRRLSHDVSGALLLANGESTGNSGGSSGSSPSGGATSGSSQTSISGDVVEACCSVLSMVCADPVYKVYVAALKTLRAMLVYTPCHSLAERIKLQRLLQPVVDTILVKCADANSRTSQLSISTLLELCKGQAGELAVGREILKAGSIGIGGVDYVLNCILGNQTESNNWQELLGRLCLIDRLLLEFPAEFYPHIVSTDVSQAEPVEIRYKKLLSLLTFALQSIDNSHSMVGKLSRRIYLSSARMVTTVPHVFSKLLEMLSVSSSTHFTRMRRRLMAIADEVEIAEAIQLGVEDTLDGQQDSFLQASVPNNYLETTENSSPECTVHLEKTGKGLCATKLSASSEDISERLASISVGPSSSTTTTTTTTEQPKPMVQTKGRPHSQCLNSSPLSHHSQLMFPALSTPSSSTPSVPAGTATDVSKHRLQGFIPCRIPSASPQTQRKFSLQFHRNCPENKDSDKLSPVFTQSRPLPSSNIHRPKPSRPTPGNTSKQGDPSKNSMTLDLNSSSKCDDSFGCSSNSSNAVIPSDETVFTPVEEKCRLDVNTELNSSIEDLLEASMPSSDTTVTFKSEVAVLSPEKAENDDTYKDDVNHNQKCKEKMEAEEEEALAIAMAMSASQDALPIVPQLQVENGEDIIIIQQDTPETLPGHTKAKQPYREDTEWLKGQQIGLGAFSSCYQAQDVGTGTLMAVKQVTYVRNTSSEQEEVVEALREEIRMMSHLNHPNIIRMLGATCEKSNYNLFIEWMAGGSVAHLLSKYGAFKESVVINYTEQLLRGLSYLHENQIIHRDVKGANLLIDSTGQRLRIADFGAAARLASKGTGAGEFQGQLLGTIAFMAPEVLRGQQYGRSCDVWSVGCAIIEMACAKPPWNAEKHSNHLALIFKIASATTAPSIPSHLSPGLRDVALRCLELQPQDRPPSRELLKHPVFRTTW

340 wild-type kinases [7] = target: T7, 340 wild-type kinases (Homo sapiens, UniProt O75676)
T7 construct: purchased Reaction Biology Europe

340 wild-type kinases [8] = target: T8, 340 wild-type kinases (Homo sapiens, UniProt P51956)
T8 construct: purchased Reaction Biology Europe
T8 sequence (P51956 1-506): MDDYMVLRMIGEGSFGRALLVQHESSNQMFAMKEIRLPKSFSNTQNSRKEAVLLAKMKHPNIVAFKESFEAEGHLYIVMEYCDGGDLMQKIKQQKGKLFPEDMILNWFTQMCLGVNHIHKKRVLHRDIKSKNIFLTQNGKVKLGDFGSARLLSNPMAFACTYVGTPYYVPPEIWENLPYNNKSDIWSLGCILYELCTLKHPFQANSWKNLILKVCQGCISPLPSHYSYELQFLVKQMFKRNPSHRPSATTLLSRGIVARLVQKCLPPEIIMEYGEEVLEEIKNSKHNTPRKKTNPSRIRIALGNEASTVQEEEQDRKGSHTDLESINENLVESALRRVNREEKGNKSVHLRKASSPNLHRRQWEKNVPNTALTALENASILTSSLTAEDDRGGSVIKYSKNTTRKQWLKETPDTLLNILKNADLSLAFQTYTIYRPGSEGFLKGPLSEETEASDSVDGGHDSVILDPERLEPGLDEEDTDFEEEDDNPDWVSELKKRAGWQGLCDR

340 wild-type kinases [9] = target: T9, 340 wild-type kinases (Homo sapiens, UniProt P04629)
T9 construct: purchased Reaction Biology Europe
T9 sequence (P04629 33-796): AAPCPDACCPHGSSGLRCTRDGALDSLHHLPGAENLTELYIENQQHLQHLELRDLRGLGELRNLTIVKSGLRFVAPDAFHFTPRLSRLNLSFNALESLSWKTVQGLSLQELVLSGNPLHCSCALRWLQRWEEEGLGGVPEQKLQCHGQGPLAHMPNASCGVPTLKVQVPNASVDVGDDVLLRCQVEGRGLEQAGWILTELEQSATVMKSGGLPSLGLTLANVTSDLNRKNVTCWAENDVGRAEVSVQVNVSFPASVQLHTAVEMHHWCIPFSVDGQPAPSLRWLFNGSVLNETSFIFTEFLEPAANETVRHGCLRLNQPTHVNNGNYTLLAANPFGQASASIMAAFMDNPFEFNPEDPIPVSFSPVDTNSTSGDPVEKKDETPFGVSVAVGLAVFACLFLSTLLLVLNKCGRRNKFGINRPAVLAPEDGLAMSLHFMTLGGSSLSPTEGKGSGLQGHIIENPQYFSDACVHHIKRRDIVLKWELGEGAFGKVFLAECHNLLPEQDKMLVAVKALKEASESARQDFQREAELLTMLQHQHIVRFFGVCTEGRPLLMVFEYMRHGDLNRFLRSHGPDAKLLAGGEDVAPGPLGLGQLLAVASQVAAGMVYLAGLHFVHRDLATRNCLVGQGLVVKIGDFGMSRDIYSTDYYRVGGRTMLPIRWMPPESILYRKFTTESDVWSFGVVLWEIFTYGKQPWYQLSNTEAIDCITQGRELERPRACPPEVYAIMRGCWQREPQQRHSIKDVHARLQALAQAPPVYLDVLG

340 wild-type kinases [10] = target: T10, 340 wild-type kinases (Homo sapiens, UniProt O95819)
T10 construct: purchased Reaction Biology Europe

340 wild-type kinases [11] = target: T11, 340 wild-type kinases (Homo sapiens, UniProt Q13043)
T11 construct: purchased Reaction Biology Europe
T11 sequence (Q13043 1-487): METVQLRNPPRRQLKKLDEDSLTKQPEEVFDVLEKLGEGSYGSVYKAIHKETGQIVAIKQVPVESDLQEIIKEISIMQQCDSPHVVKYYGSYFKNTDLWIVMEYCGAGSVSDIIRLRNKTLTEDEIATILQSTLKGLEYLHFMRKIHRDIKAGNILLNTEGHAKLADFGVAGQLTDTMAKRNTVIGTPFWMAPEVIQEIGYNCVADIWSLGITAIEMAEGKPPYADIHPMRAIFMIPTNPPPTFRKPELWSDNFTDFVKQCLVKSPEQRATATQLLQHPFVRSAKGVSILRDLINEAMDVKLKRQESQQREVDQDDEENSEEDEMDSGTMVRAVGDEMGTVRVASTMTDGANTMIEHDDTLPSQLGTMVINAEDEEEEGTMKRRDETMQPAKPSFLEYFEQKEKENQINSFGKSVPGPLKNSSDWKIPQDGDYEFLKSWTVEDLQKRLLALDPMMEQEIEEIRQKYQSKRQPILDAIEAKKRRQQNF

340 wild-type kinases [12] = target: T12, 340 wild-type kinases (Homo sapiens, UniProt Q9BYP7)
T12 construct: purchased Reaction Biology Europe

340 wild-type kinases [13] = target: T13, 340 wild-type kinases (Homo sapiens, UniProt Q96RR4)
T13 construct: purchased Reaction Biology Europe

340 wild-type kinases [14] = target: T14, 340 wild-type kinases (Homo sapiens, UniProt P09619)
T14 construct: purchased Reaction Biology Europe

CNC(=O)c1ccc2c(c1)C(=O)c1ccc(Nc3ccc(F)c(NC(=O)C4CC4)c3)cc1CC2 [Compound 2015]
remaining activity at 0.2 µM (340 wild-type kinases [1]; 0.2 µM 2015, read-out: STK23 residual activity): 90.7%
remaining activity at 1 µM (340 wild-type kinases [1]; 1 µM 2015, read-out: STK23 residual activity): 94.1%
remaining activity at 0.2 µM (340 wild-type kinases [1]; STK23, 0.2 µM, read-out: residual activity): 90.7%
remaining activity at 0.2 µM (340 wild-type kinases [2]; 0.2 µM 2015, read-out: ABL1 residual activity): 108%
remaining activity at 1 µM (340 wild-type kinases [2]; 1 µM 2015, read-out: ABL1 residual activity): 99.6%
remaining activity at 0.2 µM (340 wild-type kinases [2]; ABL1, 0.2 µM, read-out: residual activity): 108%
remaining activity at 1 µM (340 wild-type kinases [2]; ABL1, 1 µM, read-out: residual activity): 99.6%
remaining activity at 0.2 µM (340 wild-type kinases [3]; 0.2 µM 2015, read-out: PAK6 residual activity): 98%
remaining activity at 1 µM (340 wild-type kinases [3]; 1 µM 2015, read-out: PAK6 residual activity): 89.3%
remaining activity at 0.2 µM (340 wild-type kinases [3]; PAK6, 0.2 µM, read-out: residual activity): 98%
remaining activity at 1 µM (340 wild-type kinases [3]; PAK6, 1 µM, read-out: residual activity): 89.3%
remaining activity at 0.2 µM (340 wild-type kinases [4]; 0.2 µM 2015, read-out: HIPK3 residual activity): 104%
remaining activity at 1 µM (340 wild-type kinases [4]; 1 µM 2015, read-out: HIPK3 residual activity): 104%
remaining activity at 0.2 µM (340 wild-type kinases [4]; HIPK3, 0.2 µM, read-out: residual activity): 104%
remaining activity at 1 µM (340 wild-type kinases [4]; HIPK3, 1 µM, read-out: residual activity): 104%
remaining activity at 0.2 µM (340 wild-type kinases [5]; 0.2 µM 2015, read-out: TTBK2 residual activity): 115%
remaining activity at 1 µM (340 wild-type kinases [5]; 1 µM 2015, read-out: TTBK2 residual activity): 118%
remaining activity at 0.2 µM (340 wild-type kinases [5]; TTBK2, 0.2 µM, read-out: residual activity): 115%
remaining activity at 1 µM (340 wild-type kinases [5]; TTBK2, 1 µM, read-out: residual activity): 118%
remaining activity at 0.2 µM (340 wild-type kinases [6]; 0.2 µM 2015, read-out: MAP3K1 residual activity): 104%
remaining activity at 1 µM (340 wild-type kinases [6]; 1 µM 2015, read-out: MAP3K1 residual activity): 102%
remaining activity at 0.2 µM (340 wild-type kinases [6]; MAP3K1, 0.2 µM, read-out: residual activity): 104%
remaining activity at 1 µM (340 wild-type kinases [6]; MAP3K1, 1 µM, read-out: residual activity): 102%
remaining activity at 0.2 µM (340 wild-type kinases [7]; 0.2 µM 2015, read-out: RPS6KA4 residual activity): 95.3%
remaining activity at 1 µM (340 wild-type kinases [7]; 1 µM 2015, read-out: RPS6KA4 residual activity): 89.4%
remaining activity at 0.2 µM (340 wild-type kinases [7]; RPS6KA4, 0.2 µM, read-out: residual activity): 95.3%
remaining activity at 1 µM (340 wild-type kinases [7]; RPS6KA4, 1 µM, read-out: residual activity): 89.4%
remaining activity at 0.2 µM (340 wild-type kinases [8]; 0.2 µM 2015, read-out: NEK3 residual activity): 98.3%
remaining activity at 1 µM (340 wild-type kinases [8]; 1 µM 2015, read-out: NEK3 residual activity): 88.8%
remaining activity at 0.2 µM (340 wild-type kinases [8]; NEK3, 0.2 µM, read-out: residual activity): 98.3%
remaining activity at 1 µM (340 wild-type kinases [8]; NEK3, 1 µM, read-out: residual activity): 88.8%
remaining activity at 0.2 µM (340 wild-type kinases [9]; 0.2 µM 2015, read-out: TRKA residual activity): 109%
remaining activity at 1 µM (340 wild-type kinases [9]; 1 µM 2015, read-out: TRKA residual activity): 96.5%
remaining activity at 0.2 µM (340 wild-type kinases [9]; TRKA, 0.2 µM, read-out: residual activity): 109%
remaining activity at 1 µM (340 wild-type kinases [9]; TRKA, 1 µM, read-out: residual activity): 96.5%
remaining activity at 0.2 µM (340 wild-type kinases [10]; 0.2 µM 2015, read-out: MAP4K4 residual activity): 90.2%
remaining activity at 1 µM (340 wild-type kinases [10]; 1 µM 2015, read-out: MAP4K4 residual activity): 81.8%
remaining activity at 0.2 µM (340 wild-type kinases [10]; MAP4K4, 0.2 µM, read-out: residual activity): 90.2%
remaining activity at 1 µM (340 wild-type kinases [10]; MAP4K4, 1 µM, read-out: residual activity): 81.8%
remaining activity at 0.2 µM (340 wild-type kinases [11]; 0.2 µM 2015, read-out: MST1 residual activity): 98.1%
remaining activity at 1 µM (340 wild-type kinases [11]; 1 µM 2015, read-out: MST1 residual activity): 100%
remaining activity at 0.2 µM (340 wild-type kinases [11]; MST1, 0.2 µM, read-out: residual activity): 98.1%
remaining activity at 1 µM (340 wild-type kinases [11]; MST1, 1 µM, read-out: residual activity): 100%
remaining activity at 0.2 µM (340 wild-type kinases [12]; 0.2 µM 2015, read-out: WNK3 residual activity): 121%
remaining activity at 1 µM (340 wild-type kinases [12]; 1 µM 2015, read-out: WNK3 residual activity): 113%
remaining activity at 0.2 µM (340 wild-type kinases [12]; WNK3, 0.2 µM, read-out: residual activity): 121%
remaining activity at 1 µM (340 wild-type kinases [12]; WNK3, 1 µM, read-out: residual activity): 113%
remaining activity at 0.2 µM (340 wild-type kinases [13]; 0.2 µM 2015, read-out: CAMKK2 residual activity): 96%
remaining activity at 1 µM (340 wild-type kinases [13]; 1 µM 2015, read-out: CAMKK2 residual activity): 96.6%
remaining activity at 0.2 µM (340 wild-type kinases [13]; CAMKK2, 0.2 µM, read-out: residual activity): 96%
remaining activity at 1 µM (340 wild-type kinases [13]; CAMKK2, 1 µM, read-out: residual activity): 96.6%
remaining activity at 0.2 µM (340 wild-type kinases [14]; 0.2 µM 2015, read-out: PDGFRbeta residual activity): 101%
remaining activity at 1 µM (340 wild-type kinases [14]; 1 µM 2015, read-out: PDGFRbeta residual activity): 101%
remaining activity at 0.2 µM (340 wild-type kinases [14]; PDGFRbeta, 0.2 µM, read-out: residual activity): 101%
remaining activity at 1 µM (340 wild-type kinases [14]; PDGFRbeta, 1 µM, read-out: residual activity): 101%
